Starred links: 1 amine or outer side, 2 acyl side, 3 side chain; linkers in the order of their positions; H or OH if unused. Non-standard residues stand in square brackets, D forms with d. Residues, ends and D or L forms follow the SMILES beside them. Groups on a side chain read outwards from the residue. *: point of attachment. C20 diacid = O=C(O)CCCCCCCCCCCCCCCCCCC(=O)*; αMePhe(2-F) = C[C@](N)(Cc1ccccc1F)C(=O)O; γGlu = O=C(O)[C@H](CCC(=O)[*:2])N[*:1]; AEEA = NCCOCCOCC(=O)O; Aib = CC(C)(N)C(=O)O

What all share (assay type): cell-based
The target in one test is T1, GIPR (Homo sapiens, UniProt P48546).
T1 construct: expressed in transfected cells; host or cells: HEK293 (HEK293-GIPR)
T1 sequence (P48546 22-466): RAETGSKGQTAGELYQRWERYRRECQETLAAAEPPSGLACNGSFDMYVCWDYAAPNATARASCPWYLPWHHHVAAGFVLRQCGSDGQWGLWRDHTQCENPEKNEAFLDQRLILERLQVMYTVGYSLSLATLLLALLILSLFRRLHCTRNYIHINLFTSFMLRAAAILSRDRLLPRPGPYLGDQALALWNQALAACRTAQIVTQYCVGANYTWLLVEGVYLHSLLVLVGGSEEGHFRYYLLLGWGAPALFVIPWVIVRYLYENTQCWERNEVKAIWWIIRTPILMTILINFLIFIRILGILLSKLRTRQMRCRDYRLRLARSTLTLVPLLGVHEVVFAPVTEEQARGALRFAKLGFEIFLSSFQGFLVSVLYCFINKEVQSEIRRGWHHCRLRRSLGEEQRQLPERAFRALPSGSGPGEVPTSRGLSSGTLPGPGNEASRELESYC
Nature of the test: In vitro cell activity, cAMP production in HEK293 cells expressing GIPR. The note with it: HEK293-GIPR cells, cAMP; read-out: GIPR (EC50). Put shortly:
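cAMP accumulation is quantified by homogeneous TR-FRET (cAMP-d2 plus anti-cAMP cryptate) in GIPR-expressing HEK293 cells seeded from a 4×10^5 cells/mL suspension and treated with compound. The signal ratio is plotted against concentration and fitted to a four-parameter curve to give EC50.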

The target of the next test is T2, GCGR (Homo sapiens, UniProt P47871).
T2 construct: expressed in transfected cells; host or cells: HEK293 (HEK293-GCGR)
In words: In vitro cell activity, cAMP production in HEK293 cells expressing GCGR. The note with it: HEK293-GCGR cells, cAMP; read-out: GCGR (EC50). Put shortly:
(§1)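 Cells were plated at 4×10^5 cells/mL, and detection reagents (cAMP-d2, anti-cAMP cryptate, 1:1) were incubated 1 h at room temperature in the dark or overnight at 4 °C.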

For another test, the target named is T3, GLP-1R (Homo sapiens, UniProt P43220).
T3 construct: expressed in transfected cells; host or cells: HEK293 (HEK293-GLP-1R)
In words: In vitro cell activity, cAMP production in HEK293 cells expressing GLP-1R. Conditions: HEK293-GLP-1R cells, cAMP; read-out: GLP-1R (EC50). Summed up:
as §1

T3 sequence (P43220 24-463, species assumed): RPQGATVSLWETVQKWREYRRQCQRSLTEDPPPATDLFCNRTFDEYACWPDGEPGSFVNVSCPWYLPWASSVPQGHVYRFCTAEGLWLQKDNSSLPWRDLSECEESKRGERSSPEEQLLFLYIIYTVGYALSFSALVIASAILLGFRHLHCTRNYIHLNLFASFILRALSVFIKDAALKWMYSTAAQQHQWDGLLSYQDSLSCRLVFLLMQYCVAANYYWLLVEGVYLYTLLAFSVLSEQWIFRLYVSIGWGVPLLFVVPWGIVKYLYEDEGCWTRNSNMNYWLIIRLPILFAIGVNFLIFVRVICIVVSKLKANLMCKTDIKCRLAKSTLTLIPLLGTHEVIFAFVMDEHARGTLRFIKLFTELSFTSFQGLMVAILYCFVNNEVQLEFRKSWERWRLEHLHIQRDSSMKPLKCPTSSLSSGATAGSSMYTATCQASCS
T2 sequence (P47871 26-477, species assumed): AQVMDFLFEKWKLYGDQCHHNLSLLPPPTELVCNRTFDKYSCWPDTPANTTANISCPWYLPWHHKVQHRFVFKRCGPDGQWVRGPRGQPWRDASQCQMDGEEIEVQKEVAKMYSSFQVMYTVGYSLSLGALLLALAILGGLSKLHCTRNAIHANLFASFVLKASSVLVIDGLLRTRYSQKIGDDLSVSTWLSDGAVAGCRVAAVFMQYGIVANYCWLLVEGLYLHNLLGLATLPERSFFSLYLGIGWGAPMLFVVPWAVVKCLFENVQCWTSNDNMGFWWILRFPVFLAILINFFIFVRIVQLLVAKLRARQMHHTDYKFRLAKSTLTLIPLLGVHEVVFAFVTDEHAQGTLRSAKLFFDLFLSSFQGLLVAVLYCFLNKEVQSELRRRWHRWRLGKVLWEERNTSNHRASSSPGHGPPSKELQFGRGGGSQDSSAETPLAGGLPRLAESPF

Regarding `CC[C@H](C)[C@H](NC(=O)[C@H](CC(C)C)NC(=O)[C@H](Cc1c[nH]c2ccccc12)NC(=O)[C@H](CCC(N)=O)NC(=O)[C@@H](NC(=O)[C@H](Cc1ccccc1)NC(=O)[C@H](C)NC(=O)[C@H](CCC(N)=O)NC(=O)[C@H](CCC(N)=O)NC(=O)[C@H](C)NC(=O)[C@H](CCCCNC(=O)COCCOCCNC(=O)CC[C@H](NC(=O)CCCCCCCCCCCCCCCCCCC(=O)O)C(=O)O)NC(=O)[C@H](CCC(=O)O)NC(=O)[C@H](CC(=O)O)NC(=O)[C@H](CC(C)C)NC(=O)[C@H](CC(C)C)NC(=O)[C@@H](NC(=O)[C@H](CO)NC(=O)[C@H](Cc1ccc(O)cc1)NC(=O)[C@H](CC(=O)O)NC(=O)[C@H](CO)NC(=O)[C@@H](NC(=O)[C@](C)(Cc1ccccc1F)NC(=O)[C@@H](NC(=O)CNC(=O)[C@H](CCC(N)=O)NC(=O)C(C)(C)NC(=O)[C@@H](N)Cc1ccc(O)cc1)[C@@H](C)O)[C@@H](C)O)[C@@H](C)CC)C(C)C)C(=O)N[C@@H](C)C(=O)NCC(=O)NCC(=O)N1CCC[C@H]1C(=O)N[C@@H](CO)C(=O)N[C@@H](CO)C(=O)NCC(=O)N[C@@H](C)C(=O)N1CCC[C@H]1C(=O)N1CCC[C@H]1C(=O)N1CCC[C@H]1C(=O)N[C@@H](CO)C(=O)O` [HEC-PT92], the EC50 was found to be 77.9 pM on GIPR, 1850 pM at GCGR and 104 pM at GLP-1R.
The corresponding values for `CC[C@H](C)[C@H](NC(=O)[C@H](Cc1ccccc1)NC(=O)[C@H](C)NC(=O)[C@H](CCC(N)=O)NC(=O)[C@H](C)NC(=O)[C@H](CCCNC(=N)N)NC(=O)[C@H](CCCCNC(=O)COCCOCCNC(=O)CC[C@H](NC(=O)CCCCCCCCCCCCCCCCCCC(=O)O)C(=O)O)NC(=O)[C@H](CCC(=O)O)NC(=O)[C@H](CC(=O)O)NC(=O)[C@H](CC(C)C)NC(=O)[C@H](CC(C)C)NC(=O)[C@@H](NC(=O)[C@H](CO)NC(=O)[C@H](Cc1ccc(O)cc1)NC(=O)[C@H](CC(=O)O)NC(=O)[C@H](CO)NC(=O)[C@@H](NC(=O)[C@](C)(Cc1ccccc1F)NC(=O)[C@@H](NC(=O)CNC(=O)[C@H](CCC(N)=O)NC(=O)C(C)(C)NC(=O)[C@@H](N)Cc1ccc(O)cc1)[C@@H](C)O)[C@@H](C)O)[C@@H](C)CC)C(=O)N[C@@H](CCC(=O)O)C(=O)N[C@@H](Cc1ccc(O)cc1)C(=O)N[C@@H](CC(C)C)C(=O)N[C@@H](CC(C)C)C(=O)N[C@@H](CCC(=O)O)C(=O)NCC(=O)NCC(=O)N1CCC[C@H]1C(=O)N[C@@H](CO)C(=O)N[C@@H](CO)C(=O)NCC(=O)N[C@@H](C)C(=O)N1CCC[C@H]1C(=O)N1CCC[C@H]1C(=O)N1CCC[C@H]1C(=O)N[C@@H](CO)C(=O)O` [HEC-PT94] are 1300 pM, 44.2 pM and 541 pM.
The corresponding values for `CC[C@H](C)[C@H](NC(=O)[C@H](Cc1ccccc1)NC(=O)[C@H](C)NC(=O)[C@H](CCCNC(=N)N)NC(=O)[C@H](CCC(N)=O)NC(=O)[C@H](C)NC(=O)[C@H](CCCCNC(=O)COCCOCCNC(=O)CC[C@H](NC(=O)CCCCCCCCCCCCCCCCCCC(=O)O)C(=O)O)NC(=O)[C@H](CCC(=O)O)NC(=O)[C@H](CC(=O)O)NC(=O)[C@H](CC(C)C)NC(=O)[C@H](CC(C)C)NC(=O)[C@@H](NC(=O)[C@H](CO)NC(=O)[C@H](Cc1ccc(O)cc1)NC(=O)[C@H](CC(=O)O)NC(=O)[C@H](CO)NC(=O)[C@@H](NC(=O)[C@](C)(Cc1ccccc1F)NC(=O)[C@@H](NC(=O)CNC(=O)[C@H](CCC(N)=O)NC(=O)C(C)(C)NC(=O)[C@@H](N)Cc1ccc(O)cc1)[C@@H](C)O)[C@@H](C)O)[C@@H](C)CC)C(=O)N[C@@H](CCC(=O)O)C(=O)N[C@@H](Cc1ccc(O)cc1)C(=O)N[C@@H](CC(C)C)C(=O)N[C@@H](CC(C)C)C(=O)N[C@@H](C)C(=O)NCC(=O)NCC(=O)N1CCC[C@H]1C(=O)N[C@@H](CO)C(=O)N[C@@H](CO)C(=O)NCC(=O)N[C@@H](C)C(=O)N1CCC[C@H]1C(=O)N1CCC[C@H]1C(=O)N1CCC[C@H]1C(=O)N[C@@H](CO)C(=O)O` [HEC-PT95] are 237 pM, 682 pM and 156 pM.
The corresponding values for `CC[C@H](C)[C@H](NC(=O)[C@H](CCC(=O)O)NC(=O)[C@H](CC(=O)O)NC(=O)[C@H](CC(C)C)NC(=O)[C@H](CC(C)C)NC(=O)[C@@H](NC(=O)[C@H](CO)NC(=O)[C@H](Cc1ccc(O)cc1)NC(=O)[C@H](CC(=O)O)NC(=O)[C@H](CO)NC(=O)[C@@H](NC(=O)[C@](C)(Cc1ccccc1F)NC(=O)[C@@H](NC(=O)CNC(=O)[C@H](CCC(N)=O)NC(=O)C(C)(C)NC(=O)[C@@H](N)Cc1ccc(O)cc1)[C@@H](C)O)[C@@H](C)O)[C@@H](C)CC)C(=O)N[C@@H](C)C(=O)N[C@@H](CCC(N)=O)C(=O)N[C@@H](CCCCNC(=O)COCCOCCNC(=O)COCCOCCNC(=O)CC[C@H](NC(=O)CCCCCCCCCCCCCCCCCCC(=O)O)C(=O)O)C(=O)N[C@@H](C)C(=O)N[C@@H](Cc1ccccc1)C(=O)N[C@H](C(=O)N[C@@H](CCC(=O)O)C(=O)N[C@@H](Cc1ccc(O)cc1)C(=O)N[C@@H](CC(C)C)C(=O)N[C@H](C(=O)N[C@@H](C)C(=O)NCC(=O)NCC(=O)N1CCC[C@H]1C(=O)N[C@@H](CO)C(=O)N[C@@H](CO)C(=O)NCC(=O)N[C@@H](C)C(=O)N1CCC[C@H]1C(=O)N1CCC[C@H]1C(=O)N1CCC[C@H]1C(=O)N[C@@H](CO)C(=O)O)[C@@H](C)CC)[C@@H](C)CC` [HEC-PT99] are 176 pM, 12300 pM and 278 pM.
For `CC[C@H](C)[C@H](NC(=O)[C@H](CCC(=O)O)NC(=O)[C@H](CC(=O)O)NC(=O)[C@H](CC(C)C)NC(=O)[C@H](CC(C)C)NC(=O)[C@@H](NC(=O)[C@H](CO)NC(=O)[C@H](Cc1ccc(O)cc1)NC(=O)[C@H](CC(=O)O)NC(=O)[C@H](CO)NC(=O)[C@@H](NC(=O)[C@](C)(Cc1ccccc1F)NC(=O)[C@@H](NC(=O)CNC(=O)[C@H](CCC(N)=O)NC(=O)C(C)(C)NC(=O)[C@@H](N)Cc1ccc(O)cc1)[C@@H](C)O)[C@@H](C)O)[C@@H](C)CC)C(=O)N[C@@H](C)C(=O)N[C@@H](CCC(N)=O)C(=O)N[C@@H](CCCCNC(=O)COCCOCCNC(=O)COCCOCCNC(=O)CC[C@H](NC(=O)CCCCCCCCCCCCCCCCCCC(=O)O)C(=O)O)C(=O)N[C@@H](C)C(=O)N[C@@H](Cc1ccccc1)C(=O)N[C@H](C(=O)N[C@@H](CCC(N)=O)C(=O)N[C@@H](Cc1c[nH]c2ccccc12)C(=O)N[C@@H](CC(C)C)C(=O)N[C@H](C(=O)N[C@@H](C)C(=O)NCC(=O)NCC(=O)N1CCC[C@H]1C(=O)N[C@@H](CO)C(=O)N[C@@H](CO)C(=O)NCC(=O)N[C@@H](C)C(=O)N1CCC[C@H]1C(=O)N1CCC[C@H]1C(=O)N1CCC[C@H]1C(=O)N[C@@H](CO)C(=O)O)[C@@H](C)CC)C(C)C` [HEC-PT100] (H-Y[Aib]QGT[αMePhe(2-F)]TSDYSILLDEIAQK([AEEA-AEEA-γGlu-C20 diacid])AFVQWLIAGGPSSGAPPPS-OH), the EC50 at GIPR was found to be 51.8 pM; at GCGR it was 9580 pM; at GLP-1R, 97.8 pM.
As to `CC[C@H](C)[C@H](NC(=O)[C@H](CO)NC(=O)[C@H](Cc1ccc(O)cc1)NC(=O)[C@H](CC(=O)O)NC(=O)[C@H](CO)NC(=O)[C@@H](NC(=O)[C@](C)(Cc1ccccc1F)NC(=O)[C@@H](NC(=O)CNC(=O)[C@H](Cc1c[nH]cn1)NC(=O)C(C)(C)NC(=O)[C@@H](N)Cc1ccc(O)cc1)[C@@H](C)O)[C@@H](C)O)C(=O)N[C@@H](CC(C)C)C(=O)N[C@@H](CC(C)C)C(=O)N[C@@H](CC(=O)O)C(=O)N[C@@H](CCC(=O)O)C(=O)N[C@@H](CCCCNC(=O)COCCOCCNC(=O)CC[C@H](NC(=O)CCCCCCCCCCCCCCCCC(=O)O)C(=O)O)C(=O)N[C@@H](C)C(=O)N[C@@H](CCC(N)=O)C(=O)NC(C)(C)C(=O)N[C@@H](CCC(=O)O)C(=O)N[C@@H](Cc1ccccc1)C(=O)N[C@H](C(=O)N[C@@H](CCC(=O)O)C(=O)N[C@@H](Cc1c[nH]c2ccccc12)C(=O)N[C@@H](CC(C)C)C(=O)N[C@@H](CC(C)C)C(=O)N[C@@H](C)C(=O)NCC(=O)NCC(=O)N1CCC[C@H]1C(=O)N[C@@H](CO)C(=O)N[C@@H](CO)C(=O)NCC(=O)N[C@@H](C)C(=O)N1CCC[C@H]1C(=O)N1CCC[C@H]1C(=O)N1CCC[C@H]1C(=O)N[C@@H](CO)C(N)=O)[C@@H](C)CC` [HEC-PT107], the concentration giving a half-maximal response (EC50) on GIPR was determined as 79 pM; at GCGR, 3560 pM; on GLP-1R it was 267 pM.
